Data reported in patent US20160045463A1, “USE OF METALLOPROTEASE INHIBITORS IN THE TREATMENT OF POLYCYSTIC LIVER DISEASES” (UNIVERSIDAD DE SALAMANCA, priority 2012, published 2016).
Values belong to the molecule of their own block, whether it stands above or below them.

Tests used:
[1] = system: normal human cholangiocytes; assay: Metalloproteolytic activity of culture supernatants, ES001 fluorogenic peptide cleavage; type: cell-based; details: for metalloproteolytic activity in presence of stimulus: normal cholangiocytes vs basal, Table 3 final concentration: IL-6, IL-8 50 ng/ml, 17β-estradiol 1 nM/ml, VEGF, EGF, ENA-78, GRO-α 10 ng/ml, HGF 20 ng/ml, FIG. 9
Protocol: (§1) Metalloproteolytic or metalloprotease activity was measured in supernatants of cultures of normal human cholangiocytes and polycystic human cholangiocytes by an assay based on the cleavage of the ES001 fluorogenic synthetic peptide (R&D Systems Minneapolis, Minn., USA) that emits fluorescence proportional to metalloproteolytic activity. The substrate Mca-Pro-Leu-Gly-Leu-Dpa-Ala-Arg-NH2 [Mca: (7-Methoxycoumarin-4-yl)acetyl, Dpa: N-3-(2,4-Dinitrophenyl)-L-2,3-diaminopropionyl] (Knight C G, et al. FEBS Letters 1992; 296:263) is lysed between glycine and leucine by the action of the MMPs, especially MMP-1 (collagenase 1), MMP-2 (gelatinase A), MMP-7 (matrilysin), MMP-8 (collagenase 2), MMP-9 (gelatinase B), MMP-12 (macrophage elastase), MMP-13 (collagenase 3), MMP-14 (MT1-MMP), MMP-15 (MT2-MMP) and MMP-16 (MT3-MMP).
(§2) The basal metalloproteolytic activity of normal human cholangiocyte and polycystic human cholangiocytes cultures was determined by trypsinising the contents of 250 ml flasks and counting the number of cells in an inverted optical microscope using a Neubauer camera and a ½ dilution of the cell solution with trypan blue (Sigma). Next, 300,000 cells were seeded in each well of a 6-well plate and incubated with enriched DMEM/F-12 medium for 24 hours. After this time, the cells were washed with PBS and the culture medium changed for 2 ml of quiescent medium (DMEM/F-12, 1% FBS and 1% P/S) and incubated for 6 hours at 37° C./5% CO2. The supernatant was collected from each well and centrifuged at 4° C. for 10 minutes at 1,500 rpm to remove the dead cells present in the supernatant. The supernatant was concentrated 50 times using a 15 kDa (Millipore) Amicon Ultra concentrator. Next the concentrated supernatant was incubated for 2 hours at 37° C. with the ES001 fluorogenic peptide at a final concentration of 10 μM. Also, GM6001 (a global MMP inhibitor) and aprotinin (a global inhibitor of serine proteases) (both from Sigma-Aldrich) were used as controls of the specificity of the analysis of MMP activity in the assay. Recombinant MMP-10 (kindly provided by Dr. José Antonio Rodriguez Garcia, Laboratorio de Ateroesclerosis e Inflamación del CIMA, Universidad de Navarra) was used as a positive control and DMEM/F-12 medium without serum was used as the negative control. The fluorescence determination was kinetically measured in a Spectra MAX GeminiXS (Molecular Devices Sunnyvale, Calif., USA) spectrophotometer at excitation-emission wavelengths of 320-405 nm. The fluorescence intensity emitted by the culture medium was extracted from the metalloproteolytic activity values. The metalloproteolytic activity was calculated from the tangent to the curve of the fluorescence values using at least six different points over time for each type of cell and condition.
(§3) To analyse the effect of various stimuli on the metalloproteolytic activity of normal and polycystic human cholangiocytes cultures, a protocol similar to that described before in Example 2 was followed, but in this case the incubation of the cells was with quiescent medium (i.e. DMEM/F12, […]) in the presence of the corresponding stimulus (Table 3). Next, the same procedure as described for the analysis of basal metalloproteolytic activity was followed as described in Example 2.
(§4) Taking into account that: i) basal activity of polycystic human cholangiocytes in culture is greater than that of normal human cholangiocytes and ii) that IL-6 and IL-8 increased the metalloproteolytic activity of normal and polycystic human cholangiocytes, the role of these two cytokines on metalloproteolytic hyperactivity of polycystic human cholangiocytes using antibodies against the receptors of IL-6 (IL6R) and/or IL-8 (CXCR1) was investigated. […]

[2] = system: polycystic human cholangiocytes; assay: as above; type: cell-based; details: for metalloproteolytic activity in presence of stimulus: polycystic cholangiocytes vs basal, Table 3 final concentration: IL-6, IL-8 50 ng/ml, 17β-estradiol 1 nM/ml, VEGF, EGF, ENA-78, GRO-α 10 ng/ml, HGF 20 ng/ml, FIG. 9
Protocol: as §1, §2, §3, §4

[3] = system: normal human cholangiocytes; assay: MMP mRNA expression by quantitative PCR in the presence of IL-6, IL-8 or 17β-estradiol; type: cell-based
Protocol: (§5) To determine if the metalloproteolytic hyperactivity of polycystic human cholangiocytes is associated with changes in the pattern of expression of MMPs and their natural inhibitors, TIMPs, at the level of mRNA, this was analysed by quantitative PCR (i.e. qPCR) using the cDNA previously obtained as explained in Example 1, the gene expression of a total of 22 genes, including those containing the members of the metalloprotease family: MMP-1, MMP-2, MMP-3, MMP-7, MMP-8, MMP-9, MMP-10, MMP-11, MMP-13, MMP-14, MMP-15, MMP-16, MMP-17, MMP-18, MMP-24, MMP-25, MMP-26, MMP-27 and their natural inhibitors: TIMP-1, TIMP-2, TIMP-3, TIMP-4. Briefly, 4 μl of the cDNA were taken and 1.8 μl of a 10 μM solution of each primer (final concentration 0.9 μM) and 10 μl of FastSYBR® Green (Applied Biosystems) were added, adding sterile water (Braun) to reach a final volume of 20 μl. The amplification reactions were performed in a StepOne Plus (Applied Biosystems) thermo cycler following the standard protocol conditions for FastSYBR Green®.
(§6) The relative estimate of the mRNA levels of the genes of Table 2 were calculated from the PCR progression curve (fluorescence vs. cycle), where the cycle threshold or Ct was determined from when the fluorescence signal begins to increase exponentially. Thus to calculate the difference of relative expression of the normal and polycystic human cholangiocytes, the data obtained were analysed following the modified method of Livak and Schmittgen (Livak K J, et al. Methods 2001; 25:402), according to the following equation:
(§7) Relative values=1.8^(polycystic or normal cholangiocyte GAPDH−polycystic or normal cholangiocyte GEN)
(§8) Where the superscripts “GAPDH polycystic or normal cholangiocytes” and “Gene polycystic or normal cholangiocytes” correspond to the Ct for GAPDH and for each studied gene. The value of 1.8 (in place of 2) was used because it is assumed that the real efficiency of each amplification cycle is around 80% instead of 100%.
as §3
(§9) Taking into account the increase in metalloproteolytic activity induced by interleukins 6 and 8 and also the oestrogen 17β-estradiol in human cholangiocytes in culture, this was further investigated to determine if the increase in activity was correlated with an increase in gene expression at the level of mRNA of the various MMPs.

[4] = system: polycystic human cholangiocytes; assay: as above; type: cell-based
Protocol: as §5, §6, §7, §8, §3, §9

[5] = in vivo; cited from earlier work
recombinant MMP-10 = recombinant MMP-10 (Homo sapiens, UniProt P09238); assay: ES001 fluorogenic peptide assay with recombinant MMP-10 as positive control; type: biochemical; details: FIG. 2
Protocol: Metalloproteolytic or metalloprotease activity was measured in supernatants of cultures of normal human cholangiocytes and polycystic human cholangiocytes by an assay based on the cleavage of the ES001 fluorogenic synthetic peptide (R&D Systems Minneapolis, Minn., USA) that emits fluorescence proportional to metalloproteolytic activity. The substrate Mca-Pro-Leu-Gly-Leu-Dpa-Ala-Arg-NH2 [Mca: (7-Methoxycoumarin-4-yl)acetyl, Dpa: N-3-(2,4-Dinitrophenyl)-L-2,3-diaminopropionyl] […]
The basal metalloproteolytic activity of normal human cholangiocyte and polycystic human cholangiocytes cultures was determined by trypsinising the contents of 250 ml flasks and counting the number of cells in an inverted optical microscope using a Neubauer camera and a ½ dilution of the cell solution with trypan blue (Sigma). […] The fluorescence determination was kinetically measured in a Spectra MAX GeminiXS (Molecular Devices Sunnyvale, Calif., USA) spectrophotometer at excitation-emission wavelengths of 320-405 nm. The fluorescence intensity emitted by the culture medium was extracted from the metalloproteolytic activity values. The metalloproteolytic activity was calculated from the tangent to the curve of the fluorescence values using at least six different points over time for each type of cell and condition.

Sequence of recombinant MMP-10 (P09238 99-476, species assumed): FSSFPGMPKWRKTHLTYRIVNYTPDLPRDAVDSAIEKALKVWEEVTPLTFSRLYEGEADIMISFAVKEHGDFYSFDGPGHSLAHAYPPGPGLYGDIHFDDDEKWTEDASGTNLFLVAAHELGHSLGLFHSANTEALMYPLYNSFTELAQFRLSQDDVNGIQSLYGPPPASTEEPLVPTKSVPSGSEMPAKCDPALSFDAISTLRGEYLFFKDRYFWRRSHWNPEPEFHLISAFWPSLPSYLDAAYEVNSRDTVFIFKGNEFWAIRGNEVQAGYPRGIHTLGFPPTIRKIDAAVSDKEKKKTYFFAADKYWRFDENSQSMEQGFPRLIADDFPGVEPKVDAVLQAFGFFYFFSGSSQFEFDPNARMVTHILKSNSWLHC

Molecule: CC1=C(/C=C/C(C)=C/C=C/C(C)=C\C(=O)O)C(C)(C)CCC1 [13-cis-retinoic acid]
basal metalloproteolytic activity in presence of inhibitor ([1]; normal cholangiocytes, 13-cis-retinoic acid 10 μM/ml or Marimastat 200 μM/ml, p<0.01, FIG. 21): inhibited
basal metalloproteolytic activity in presence of inhibitor ([2]; polycystic cholangiocytes, 13-cis-retinoic acid 10 μM/ml or Marimastat 200 μM/ml, p<0.01, FIG. 21): inhibited

Molecule: C[C@]12CC[C@@H]3c4ccc(O)cc4CC[C@H]3[C@@H]1CC[C@@H]2O [17β-estradiol]
expression of the other metalloproteinases 1, 8, 9, 14, 16, 18, 24 and 26 [3]: did not show changes
expression of MMP-2 (mRNA) ([3]; FIG. 10): none of these modules induced changes
expression of MMP-3 (mRNA) ([3]; FIG. 11): increased
expression of MMP-7 (mRNA) ([3]; FIG. 12): None of the 3 molecules caused changes
expression of MMP-10 (mRNA) ([3]; FIG. 13): increased
expression of MMP-11 (mRNA) ([3]; FIG. 14): increased
expression of MMP-13 (mRNA) ([3]; FIG. 15): increased
expression of MMP-15 (mRNA) ([3]; FIG. 16): did not change
expression of MMP-17 (mRNA) ([3]; FIG. 17): did not change
expression of MMP-27 (mRNA) ([3]; FIG. 18): did not change
expression of the other metalloproteinases 1, 8, 9, 14, 16, 18, 24 and 26 [4]: did not show changes
expression of MMP-2 (mRNA) ([4]; FIG. 10): increased
expression of MMP-3 (mRNA) ([4]; FIG. 11): unchanged
expression of MMP-7 (mRNA) ([4]; FIG. 12): unchanged
expression of MMP-10 (mRNA) ([4]; FIG. 13): none of the 3 molecules caused changes
expression of MMP-11 (mRNA) ([4]; FIG. 14): increased
expression of MMP-13 (mRNA) ([4]; FIG. 15): increased
expression of MMP-15 (mRNA) ([4]; FIG. 16): not altered
expression of MMP-17 (mRNA) ([4]; FIG. 17): increased
expression of MMP-27 (mRNA) ([4]; FIG. 18): unchanged
metalloproteolytic activity in presence of stimulus [1]: increase
metalloproteolytic activity in presence of stimulus [2]: increase

Molecule: O=C(C[C@H](CSc1ccccc1)C(=O)O)c1ccc(-c2ccc(Cl)cc2)cc1 [BAY-12-9566]
half-life in plasma [5]: 90 to 100 h

metalloproteolytic activity of the assay with recombinant MMP-10 (recombinant MMP-10): inhibited
Molecule: CNC(=O)[C@H](Cc1c[nH]c2ccccc12)NC(=O)[C@@H](CC(=O)NO)CC(C)C [GM6001]
metalloproteolytic activity ([1]; normal human cholangiocytes, presence of MMP inhibitor GM6001, p<0.001, FIG. 2): inhibited
metalloproteolytic activity ([2]; polycystic human cholangiocytes, presence of MMP inhibitor GM6001, p<0.001, FIG. 2): inhibited

Molecule: EGF: epidermal growth factor
metalloproteolytic activity in presence of stimulus [1]: did not induce any change
metalloproteolytic activity in presence of stimulus [2]: did not induce any change
